Data reported in PubChem BioAssay (NCI).
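Each compound was tested at five concentrations against cells in 96-well plates for 48 hours. TGI: concentration producing complete growth inhibition.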

Experiments:
Test in all cases: growth of human tumour cells (NCI), 48 h
HOP-62 NSCLC = system: HOP-62 NSCLC
RPMI-8226 leukemia = system: RPMI-8226 leukemia
786-0 renal = system: 786-0 renal
CCRF-CEM leukemia = system: CCRF-CEM leukemia
MDA-MB-435 = system: MDA-MB-435
SW-620 colon = system: SW-620 colon
MCF7 breast = system: MCF7 breast
HCT-15 colon = system: HCT-15 colon
OVCAR-4 ovarian = system: OVCAR-4 ovarian
COLO 205 colon = system: COLO 205 colon
M14 melanoma = system: M14 melanoma
RXF 393 renal = system: RXF 393 renal
TK-10 renal = system: TK-10 renal
SN12C renal = system: SN12C renal
K-562 leukemia = system: K-562 leukemia
SR leukemia = system: SR leukemia
OVCAR-3 ovarian = system: OVCAR-3 ovarian
SK-MEL-2 melanoma = system: SK-MEL-2 melanoma
NCI-H23 lung = system: NCI-H23 lung
KM12 colon = system: KM12 colon
UACC-62 melanoma = system: UACC-62 melanoma
HS 578T breast = system: HS 578T breast
U251 CNS = system: U251 CNS
NCI-H460 lung = system: NCI-H460 lung
A549 NSCLC = system: A549 NSCLC
SK-MEL-5 melanoma = system: SK-MEL-5 melanoma
EKVX NSCLC = system: EKVX NSCLC
MDA-N = system: MDA-N
LOX IMVI melanoma = system: LOX IMVI melanoma
MALME-3M melanoma = system: MALME-3M melanoma
OVCAR-8 ovarian = system: OVCAR-8 ovarian
BT-549 breast = system: BT-549 breast
SK-OV-3 ovarian = system: SK-OV-3 ovarian
ACHN renal = system: ACHN renal
SF-539 CNS = system: SF-539 CNS
HCT-116 colon = system: HCT-116 colon
HL-60(TB) leukemia = system: HL-60(TB) leukemia
PC-3 prostate = system: PC-3 prostate
OVCAR-5 ovarian = system: OVCAR-5 ovarian
NCI-H522 lung = system: NCI-H522 lung
SNB-19 CNS = system: SNB-19 CNS
A498 renal = system: A498 renal
SF-295 CNS = system: SF-295 CNS
T-47D breast = system: T-47D breast
HOP-92 NSCLC = system: HOP-92 NSCLC
UO-31 renal = system: UO-31 renal
SK-MEL-28 melanoma = system: SK-MEL-28 melanoma
UACC-257 melanoma = system: UACC-257 melanoma
NCI/ADR-RES ovarian = system: NCI/ADR-RES ovarian
MDA-MB-231 breast = system: MDA-MB-231 breast
SF-268 CNS = system: SF-268 CNS
SNB-75 CNS = system: SNB-75 CNS
CAKI-1 renal = system: CAKI-1 renal
MOLT-4 leukemia = system: MOLT-4 leukemia
NCI-H226 lung = system: NCI-H226 lung
IGROV1 ovarian = system: IGROV1 ovarian
HT29 colon = system: HT29 colon
DU-145 prostate = system: DU-145 prostate
HCC-2998 colon = system: HCC-2998 colon

SMILES: C/C(=N\Nc1ccc2ccccc2n1)c1ccccc1O
- TGI (HOP-62 NSCLC): > 47.9 µM
- TGI (RPMI-8226 leukemia): > 100 µM
- TGI (786-0 renal): > 100 µM
- TGI (CCRF-CEM leukemia): > 29.4 µM
- TGI (MDA-MB-435): > 100 µM
- TGI (SW-620 colon): > 100 µM
- TGI (MCF7 breast): > 100 µM
- TGI (HCT-15 colon): > 100 µM
- TGI (OVCAR-4 ovarian): > 100 µM
- TGI (COLO 205 colon): > 100 µM
- TGI (M14 melanoma): > 100 µM
- TGI (RXF 393 renal): > 100 µM
- TGI (TK-10 renal): > 100 µM
- TGI (SN12C renal): > 100 µM
- TGI (K-562 leukemia): > 100 µM
- TGI (SR leukemia): 8.16 µM
- TGI (OVCAR-3 ovarian): > 20 µM
- TGI (SK-MEL-2 melanoma): > 100 µM
- TGI (NCI-H23 lung): > 100 µM
- TGI (KM12 colon): > 100 µM
- TGI (UACC-62 melanoma): > 100 µM
- TGI (HS 578T breast): > 100 µM
- TGI (U251 CNS): > 100 µM
- TGI (NCI-H460 lung): > 100 µM
- TGI (A549 NSCLC): > 100 µM
- TGI (SK-MEL-5 melanoma): > 100 µM
- TGI (EKVX NSCLC): > 100 µM
- TGI (MDA-N): > 100 µM
- TGI (LOX IMVI melanoma): > 100 µM
- TGI (MALME-3M melanoma): > 100 µM
- TGI (OVCAR-8 ovarian): > 100 µM
- TGI (BT-549 breast): > 100 µM
- TGI (SK-OV-3 ovarian): > 57.6 µM
- TGI (ACHN renal): > 100 µM
- TGI (SF-539 CNS): > 100 µM
- TGI (HCT-116 colon): > 100 µM
- TGI (HL-60(TB) leukemia): > 100 µM
- TGI (PC-3 prostate): > 100 µM
- TGI (OVCAR-5 ovarian): > 100 µM
- TGI (NCI-H522 lung): > 100 µM
- TGI (SNB-19 CNS): > 100 µM
- TGI (A498 renal): > 100 µM
- TGI (SF-295 CNS): 37.2 µM
- TGI (T-47D breast): > 100 µM
- TGI (HOP-92 NSCLC): > 100 µM
- TGI (UO-31 renal): > 100 µM
- TGI (SK-MEL-28 melanoma): > 100 µM
- TGI (UACC-257 melanoma): > 100 µM
- TGI (NCI/ADR-RES ovarian): > 100 µM
- TGI (MDA-MB-231 breast): > 100 µM
- TGI (SF-268 CNS): > 100 µM
- TGI (SNB-75 CNS): 24.7 µM
- TGI (CAKI-1 renal): > 100 µM
- TGI (MOLT-4 leukemia): > 58.5 µM
- TGI (NCI-H226 lung): > 100 µM
- TGI (IGROV1 ovarian): > 100 µM
- TGI (HT29 colon): > 100 µM
- TGI (DU-145 prostate): > 100 µM

SMILES: COc1ccc(/C=C/C(=O)c2nc3ccccc3[nH]2)cc1
- TGI (HOP-62 NSCLC): > 88.1 µM
- TGI (RPMI-8226 leukemia): > 29.8 µM
- TGI (786-0 renal): 32.2 µM
- TGI (CCRF-CEM leukemia): > 100 µM
- TGI (MDA-MB-435): > 100 µM
- TGI (SW-620 colon): 49.1 µM
- TGI (MCF7 breast): > 81 µM
- TGI (HCT-15 colon): > 40.5 µM
- TGI (OVCAR-4 ovarian): 60.1 µM
- TGI (COLO 205 colon): 26 µM
- TGI (M14 melanoma): > 59.1 µM
- TGI (RXF 393 renal): 35.3 µM
- TGI (TK-10 renal): 47.2 µM
- TGI (SN12C renal): 73.9 µM
- TGI (K-562 leukemia): > 100 µM
- TGI (SR leukemia): > 27.1 µM
- TGI (OVCAR-3 ovarian): 48.5 µM
- TGI (SK-MEL-2 melanoma): > 100 µM
- TGI (KM12 colon): 19.8 µM
- TGI (UACC-62 melanoma): 38.9 µM
- TGI (HS 578T breast): > 77.2 µM
- TGI (U251 CNS): 37.3 µM
- TGI (NCI-H460 lung): 47.5 µM
- TGI (A549 NSCLC): > 81.8 µM
- TGI (SK-MEL-5 melanoma): 31.8 µM
- TGI (EKVX NSCLC): 46 µM
- TGI (MDA-N): 32.9 µM
- TGI (LOX IMVI melanoma): 28.2 µM
- TGI (MALME-3M melanoma): 61.7 µM
- TGI (OVCAR-8 ovarian): 51.1 µM
- TGI (BT-549 breast): 55.2 µM
- TGI (SK-OV-3 ovarian): 86.1 µM
- TGI (ACHN renal): 34.5 µM
- TGI (SF-539 CNS): 26.7 µM
- TGI (HCT-116 colon): 18.6 µM
- TGI (HL-60(TB) leukemia): > 29.7 µM
- TGI (PC-3 prostate): 87.6 µM
- TGI (OVCAR-5 ovarian): > 71.7 µM
- TGI (NCI-H522 lung): 32.5 µM
- TGI (SNB-19 CNS): 77.3 µM
- TGI (A498 renal): > 82.7 µM
- TGI (SF-295 CNS): > 84.8 µM
- TGI (T-47D breast): 53.7 µM
- TGI (HOP-92 NSCLC): 35.6 µM
- TGI (UO-31 renal): 34.6 µM
- TGI (SK-MEL-28 melanoma): 65.6 µM
- TGI (UACC-257 melanoma): 52 µM
- TGI (NCI/ADR-RES ovarian): 53.5 µM
- TGI (MDA-MB-231 breast): 48.9 µM
- TGI (SF-268 CNS): > 64.5 µM
- TGI (SNB-75 CNS): 57.4 µM
- TGI (CAKI-1 renal): > 100 µM
- TGI (MOLT-4 leukemia): > 67.1 µM
- TGI (NCI-H226 lung): > 54.7 µM
- TGI (IGROV1 ovarian): 25.9 µM
- TGI (HT29 colon): 22.9 µM
- TGI (DU-145 prostate): 45.6 µM

SMILES: Brc1ccccc1/C=C\C1(c2ccccc2)OCCO1
- TGI (HOP-62 NSCLC): 27.7 µM
- TGI (RPMI-8226 leukemia): 6.78 µM
- TGI (786-0 renal): 24.3 µM
- TGI (CCRF-CEM leukemia): > 33.2 µM
- TGI (MDA-MB-435): 24.6 µM
- TGI (MCF7 breast): 18.1 µM
- TGI (HCT-15 colon): 19.5 µM
- TGI (OVCAR-4 ovarian): 14.8 µM
- TGI (COLO 205 colon): 37.7 µM
- TGI (M14 melanoma): 25.6 µM
- TGI (RXF 393 renal): 27.7 µM
- TGI (TK-10 renal): 31.7 µM
- TGI (SN12C renal): 27.4 µM
- TGI (K-562 leukemia): > 100 µM
- TGI (SR leukemia): 8.33 µM
- TGI (OVCAR-3 ovarian): 25.5 µM
- TGI (SK-MEL-2 melanoma): 44.7 µM
- TGI (NCI-H23 lung): 20.5 µM
- TGI (KM12 colon): 7.17 µM
- TGI (UACC-62 melanoma): 28 µM
- TGI (HS 578T breast): 17.3 µM
- TGI (U251 CNS): 18.4 µM
- TGI (NCI-H460 lung): 34.2 µM
- TGI (A549 NSCLC): 32.8 µM
- TGI (SK-MEL-5 melanoma): 29.1 µM
- TGI (EKVX NSCLC): 30.6 µM
- TGI (MDA-N): 25.3 µM
- TGI (LOX IMVI melanoma): 11.6 µM
- TGI (MALME-3M melanoma): 29.9 µM
- TGI (OVCAR-8 ovarian): 24.5 µM
- TGI (BT-549 breast): 39 µM
- TGI (SK-OV-3 ovarian): 26.5 µM
- TGI (ACHN renal): 21.3 µM
- TGI (SF-539 CNS): 25.7 µM
- TGI (HCT-116 colon): 11.9 µM
- TGI (HL-60(TB) leukemia): > 52.3 µM
- TGI (PC-3 prostate): 34.1 µM
- TGI (OVCAR-5 ovarian): 29.5 µM
- TGI (NCI-H522 lung): 22.6 µM
- TGI (SNB-19 CNS): 28.9 µM
- TGI (A498 renal): 25.9 µM
- TGI (SF-295 CNS): 26.4 µM
- TGI (T-47D breast): 31.4 µM
- TGI (HOP-92 NSCLC): 46.9 µM
- TGI (UO-31 renal): 20 µM
- TGI (SK-MEL-28 melanoma): 46.9 µM
- TGI (UACC-257 melanoma): 34.5 µM
- TGI (NCI/ADR-RES ovarian): 32.7 µM
- TGI (MDA-MB-231 breast): 25.4 µM
- TGI (SF-268 CNS): 16 µM
- TGI (SNB-75 CNS): 28.6 µM
- TGI (CAKI-1 renal): 16.3 µM
- TGI (HCC-2998 colon): 32.2 µM
- TGI (MOLT-4 leukemia): 9.23 µM
- TGI (NCI-H226 lung): 38.2 µM
- TGI (IGROV1 ovarian): 29.3 µM
- TGI (HT29 colon): 19 µM
- TGI (DU-145 prostate): 26.7 µM
